Data on 23 molecules can be found in ChEMBL document CHEMBL3872281, “A one-pot laccase-catalysed synthesis of coumestan derivatives and their anticancer activity” (Bioorg Med Chem, 2017).

Type in all cases: functional
A short description of assay [1]: Cytotoxicity against human MCF7 cells assessed as cell growth inhibition after 48 hrs by SRB assay. The note with it: MCF7, 48 h; for CC50: read-out: LC50 (the source's name). In general terms: Sulforhodamine B stains cellular protein and so reports cell mass.
Assay [2] is described as follows: Cytotoxicity against human TK10 cells assessed as cell growth inhibition after 48 hrs by SRB assay. To be noted: TK-10, 48 h; for CC50: read-out: LC50 (the source's name).
Assay [3] can be described thus: Cytotoxicity against human UACC62 cells assessed as cell growth inhibition after 48 hrs by SRB assay. To be noted: UACC-62, 48 h.
The subject of another assay is UACC-62. Briefly: Potency index, ratio of etoposide TGI to compound TGI for human UACC62 cells.

As usually defined, the GI50 is the concentration giving 50% growth inhibition. The term TGI denotes the concentration giving total growth inhibition.

With `Cc1cccc(O)c1O`, in assay [1], the GI50 came to 27.3 µM, the TGI amounted to 64.3 µM and the CC50 is over 100 µM. In assay [2], the GI50 was found to be 38.1 µM, the TGI turned out to be 75.8 µM and the CC50 is over 100 µM. Moreover, in assay [3], the 50% growth inhibitory concentration (GI50) worked out at 15.2 µM and the concentration for total growth inhibition (TGI) amounted to 46.2 µM.
With `O=c1oc2ccccc2c2oc3c(F)c(O)c(O)cc3c12`, in assay [1], the GI50 came to 53.1 µM, the TGI is over 100 µM and the CC50 is over 100 µM. Further, in assay [2], the concentration for 50% growth inhibition (GI50) is over 100 µM, the TGI was over 100 µM and the CC50 was over 100 µM. In addition, in assay [3], the GI50 amounted to 67.6 µM, the LC50 (concentration giving 50% net cell kill) was over 100 µM and the TGI is over 100 µM.
Consider `Oc1cccc(F)c1O`, for which, in assay [1], the 50% growth inhibitory concentration (GI50) worked out at 57.6 µM, the TGI was over 100 µM and the CC50 is over 100 µM. In assay [2], the GI50 was 84.7 µM, the TGI was over 100 µM and the CC50 is over 100 µM. In assay [3], the GI50 came out at 35.2 µM and the TGI amounted to 78.4 µM.
Take `Cc1cc2oc(=O)c3c4cc(O)c(O)c(C)c4oc3c2cc1C`: in assay [1], the 50% growth inhibitory concentration (GI50) came out at 87.3 µM, the total growth inhibition concentration (TGI) was over 100 µM and the CC50 was over 100 µM. Besides, in assay [2], the GI50 is over 100 µM, the concentration for total growth inhibition (TGI) was over 100 µM and the CC50 is over 100 µM. Besides, in assay [3], the GI50 was 67.6 µM, the LC50 (concentration giving 50% net cell kill) was over 100 µM and the TGI was over 100 µM.
In the case of `O=c1cc(O)c2ccccc2o1` [4-HYDROXYCOUMARINS], in assay [1], the GI50 is 95.3 µM, the total growth inhibition concentration (TGI) was over 100 µM and the CC50 was over 100 µM. In addition, in assay [2], the concentration for 50% growth inhibition (GI50) is over 100 µM, the TGI was over 100 µM and the CC50 was over 100 µM. Besides, in assay [3], the GI50 was 83.6 µM and the total growth inhibition concentration (TGI) was over 100 µM.
`Cc1cc2oc(=O)cc(O)c2cc1C`: in assay [1], the GI50 came to 82.3 µM, the TGI was over 100 µM and the CC50 was over 100 µM. In addition, in assay [2], the 50% growth inhibitory concentration (GI50) is over 100 µM, the concentration for total growth inhibition (TGI) was over 100 µM and the CC50 was over 100 µM. Also, in assay [3], the concentration for 50% growth inhibition (GI50) was found to be 80.5 µM, the LC50 (concentration giving 50% net cell kill) is over 100 µM and the concentration for total growth inhibition (TGI) is over 100 µM.
Consider `Cc1ccc2oc(=O)c3c4cc(O)c(O)cc4oc3c2c1`, for which, in assay [1], the GI50 was found to be 54.7 µM, the TGI was over 100 µM and the CC50 is over 100 µM. Also, in assay [2], the concentration for 50% growth inhibition (GI50) was determined as 52 µM, the TGI was over 100 µM and the CC50 is over 100 µM. In addition, in assay [3], the concentration for 50% growth inhibition (GI50) stood at 11.2 µM, the LC50 (concentration giving 50% net cell kill) is 90.7 µM and the total growth inhibition concentration (TGI) amounted to 50.9 µM.
`Cc1ccc2oc(=O)c3c4cc(O)c(O)c(C)c4oc3c2c1`: in assay [1], the GI50 is 7.96 µM, the concentration for total growth inhibition (TGI) worked out at 78.2 µM and the CC50 is over 100 µM. Besides, in assay [2], the concentration for 50% growth inhibition (GI50) stood at 48.8 µM, the concentration for total growth inhibition (TGI) was over 100 µM and the CC50 was over 100 µM. For the same molecule, in assay [3], the 50% growth inhibitory concentration (GI50) was 5.35 µM, the LC50 (concentration giving 50% net cell kill) is 89.9 µM and the TGI was 9.82 µM. For the same molecule, the Ratio in the assay on UACC-62 stood at 5.
For the molecule `Cc1ccc2oc(=O)cc(O)c2c1`, in assay [1], the GI50 is 84.4 µM, the TGI is over 100 µM and the CC50 was over 100 µM. In addition, in assay [2], the GI50 was over 100 µM, the TGI was over 100 µM and the CC50 is over 100 µM. In addition, in assay [3], the concentration for 50% growth inhibition (GI50) came out at 84.7 µM and the TGI is over 100 µM.
Turning to `Cc1cc2oc(=O)c3c4cc(O)c(O)c(F)c4oc3c2cc1C`, in assay [1], the 50% growth inhibitory concentration (GI50) amounted to 77.7 µM, the TGI was over 100 µM and the CC50 was over 100 µM. In assay [2], the GI50 is over 100 µM, the TGI is over 100 µM and the CC50 is over 100 µM. Moreover, in assay [3], the GI50 is 91.8 µM, the LC50 (concentration giving 50% net cell kill) was over 100 µM and the TGI was over 100 µM.
`COc1c(O)c(O)cc2c1oc1c3ccccc3oc(=O)c21`: in assay [1], the GI50 came to 87.3 µM, the TGI was over 100 µM and the CC50 is over 100 µM. Moreover, in assay [2], the concentration for 50% growth inhibition (GI50) was over 100 µM, the TGI was over 100 µM and the CC50 is over 100 µM. Moreover, in assay [3], the GI50 worked out at 67.6 µM, the LC50 (concentration giving 50% net cell kill) was over 100 µM and the concentration for total growth inhibition (TGI) was over 100 µM.
With `Cc1c(O)c(O)cc2c1oc1c3cc(Cl)ccc3oc(=O)c21`, in assay [1], the concentration for 50% growth inhibition (GI50) stood at 63.1 µM, the concentration for total growth inhibition (TGI) was over 100 µM and the CC50 is over 100 µM. Besides, in assay [2], the concentration for 50% growth inhibition (GI50) was 58.1 µM, the TGI is over 100 µM and the CC50 was over 100 µM. For the same molecule, in assay [3], the concentration for 50% growth inhibition (GI50) came to 39.7 µM, the LC50 (concentration giving 50% net cell kill) is over 100 µM and the TGI was determined as 73.6 µM.
For the molecule `Oc1ccccc1O` [CATECHOL], in assay [1], the GI50 was 52.4 µM, the total growth inhibition concentration (TGI) is over 100 µM and the CC50 is over 100 µM. Also, in assay [2], the 50% growth inhibitory concentration (GI50) was found to be 68 µM, the total growth inhibition concentration (TGI) is over 100 µM and the CC50 was over 100 µM. In addition, in assay [3], the concentration for 50% growth inhibition (GI50) was determined as 45 µM and the concentration for total growth inhibition (TGI) was over 100 µM.
Regarding `Cc1c(O)c(O)cc2c1oc1c3ccccc3oc(=O)c21`, in assay [1], the GI50 was 54.9 µM, the total growth inhibition concentration (TGI) was over 100 µM and the CC50 was over 100 µM. Further, in assay [2], the 50% growth inhibitory concentration (GI50) was over 100 µM, the total growth inhibition concentration (TGI) is over 100 µM and the CC50 was over 100 µM. Also, in assay [3], the 50% growth inhibitory concentration (GI50) stood at 55.6 µM, the LC50 (concentration giving 50% net cell kill) is over 100 µM and the TGI was over 100 µM.
With `COc1c(O)c(O)cc2c1oc1c3cc(C)ccc3oc(=O)c21`, in assay [1], the concentration for 50% growth inhibition (GI50) came to 65.8 µM, the TGI is over 100 µM and the CC50 was over 100 µM. In addition, in assay [2], the GI50 is 88.6 µM, the TGI is over 100 µM and the CC50 is over 100 µM. For the same molecule, in assay [3], the 50% growth inhibitory concentration (GI50) is 49.9 µM, the LC50 (concentration giving 50% net cell kill) is over 100 µM and the total growth inhibition concentration (TGI) was over 100 µM.
With `Cc1cc2oc(=O)c3c4cc(O)c(O)cc4oc3c2cc1C`, in assay [1], the GI50 was 46 µM, the TGI came to 86.3 µM and the CC50 was over 100 µM. Further, in assay [2], the GI50 is 53.3 µM, the TGI was over 100 µM and the CC50 is over 100 µM. Moreover, in assay [3], the GI50 came out at 38.3 µM, the LC50 (concentration giving 50% net cell kill) was over 100 µM and the TGI came to 80.1 µM.
With `O=c1oc2ccccc2c2oc3cc(O)c(O)cc3c12`, in assay [1], the GI50 was determined as 39.4 µM, the concentration for total growth inhibition (TGI) was found to be 77.3 µM and the CC50 was over 100 µM. In assay [2], the GI50 turned out to be 28.7 µM, the TGI is 88.4 µM and the CC50 is over 100 µM. Besides, in assay [3], the concentration for 50% growth inhibition (GI50) stood at 33.3 µM, the LC50 (concentration giving 50% net cell kill) came out at 90.6 µM and the concentration for total growth inhibition (TGI) worked out at 61.9 µM.
For `O=c1oc2ccc(Cl)cc2c2oc3cc(O)c(O)cc3c12`, in assay [1], the 50% growth inhibitory concentration (GI50) worked out at 47.5 µM, the TGI amounted to 89.8 µM and the CC50 was over 100 µM. Moreover, in assay [2], the concentration for 50% growth inhibition (GI50) turned out to be 53.4 µM, the TGI is over 100 µM and the CC50 was over 100 µM. In assay [3], the 50% growth inhibitory concentration (GI50) turned out to be 36.3 µM, the LC50 (concentration giving 50% net cell kill) is over 100 µM and the total growth inhibition concentration (TGI) worked out at 68.6 µM.
For the molecule `COc1c(O)c(O)cc2c1oc1c3cc(C)c(C)cc3oc(=O)c21`, in assay [1], the concentration for 50% growth inhibition (GI50) is 29.5 µM, the concentration for total growth inhibition (TGI) worked out at 95.4 µM and the CC50 is over 100 µM. Besides, in assay [2], the concentration for 50% growth inhibition (GI50) was determined as 26.8 µM, the concentration for total growth inhibition (TGI) was found to be 66.4 µM and the CC50 was over 100 µM. In assay [3], the GI50 worked out at 18.1 µM, the LC50 (concentration giving 50% net cell kill) came out at 75.3 µM and the total growth inhibition concentration (TGI) amounted to 46.7 µM.
Turning to `O=c1cc(O)c2cc(Cl)ccc2o1`, in assay [1], the concentration for 50% growth inhibition (GI50) stood at 83.3 µM, the total growth inhibition concentration (TGI) is over 100 µM and the CC50 is over 100 µM. For the same molecule, in assay [2], the GI50 is over 100 µM, the TGI was over 100 µM and the CC50 is over 100 µM. For the same molecule, in assay [3], the GI50 was found to be 88.7 µM, the LC50 (concentration giving 50% net cell kill) was over 100 µM and the total growth inhibition concentration (TGI) was over 100 µM.
Regarding `COc1cc([C@@H]2c3cc4c(cc3[C@@H](O[C@@H]3O[C@@H]5CO[C@@H](C)O[C@H]5[C@H](O)[C@H]3O)[C@H]3COC(=O)[C@H]23)OCO4)cc(OC)c1O` [ETOPOSIDE], in assay [1], the 50% growth inhibitory concentration (GI50) was determined as 0.56 µM, the total growth inhibition concentration (TGI) is over 100 µM and the CC50 is over 100 µM. Besides, the CC50 in assay [2] is over 100 µM. Moreover, in assay [3], the 50% growth inhibitory concentration (GI50) came out at 0.89 µM.
For `COc1cccc(O)c1O` [3-METHOXYCATECHOL], in assay [1], the concentration for 50% growth inhibition (GI50) came to 27.6 µM, the total growth inhibition concentration (TGI) amounted to 60.7 µM and the CC50 came to 93.8 µM. In assay [2], the GI50 was 51.6 µM, the concentration for total growth inhibition (TGI) was 97 µM and the CC50 was over 100 µM. Moreover, in assay [3], the concentration for 50% growth inhibition (GI50) was 23.6 µM and the concentration for total growth inhibition (TGI) came to 50.3 µM.
`O=c1oc2ccc(Cl)cc2c2oc3c(F)c(O)c(O)cc3c12`: in assay [1], the GI50 came out at 70.3 µM, the TGI was over 100 µM and the CC50 was over 100 µM. In addition, in assay [2], the GI50 is over 100 µM, the total growth inhibition concentration (TGI) was over 100 µM and the CC50 was over 100 µM. Moreover, in assay [3], the GI50 was 83.7 µM, the LC50 (concentration giving 50% net cell kill) is over 100 µM and the TGI is over 100 µM.
